{
  "source": "patent US20230181562A1",
  "about": "“USE OF A MULTIFUNCTIONAL LIGAND FOR TREATING DRY EYES, MEIBOMIAN GLAND DYSFUNCTIONS AND LACRIMAL GLAND DYSFUNCTIONS” (H4 ORPHAN PHARMA, priority 2020, published 2023)",
  "key": {"non-mutated CFTR": {"molecular_target": "T1, non-mutated CFTR (Homo sapiens, UniProt P13569)", "T1 construct": "host or cells: human epithelial cells (called glandular / lacrimal gland epithelial cells) grown on Snapwell filters", "T1 sequence (P13569 whole entry, change not shown)": "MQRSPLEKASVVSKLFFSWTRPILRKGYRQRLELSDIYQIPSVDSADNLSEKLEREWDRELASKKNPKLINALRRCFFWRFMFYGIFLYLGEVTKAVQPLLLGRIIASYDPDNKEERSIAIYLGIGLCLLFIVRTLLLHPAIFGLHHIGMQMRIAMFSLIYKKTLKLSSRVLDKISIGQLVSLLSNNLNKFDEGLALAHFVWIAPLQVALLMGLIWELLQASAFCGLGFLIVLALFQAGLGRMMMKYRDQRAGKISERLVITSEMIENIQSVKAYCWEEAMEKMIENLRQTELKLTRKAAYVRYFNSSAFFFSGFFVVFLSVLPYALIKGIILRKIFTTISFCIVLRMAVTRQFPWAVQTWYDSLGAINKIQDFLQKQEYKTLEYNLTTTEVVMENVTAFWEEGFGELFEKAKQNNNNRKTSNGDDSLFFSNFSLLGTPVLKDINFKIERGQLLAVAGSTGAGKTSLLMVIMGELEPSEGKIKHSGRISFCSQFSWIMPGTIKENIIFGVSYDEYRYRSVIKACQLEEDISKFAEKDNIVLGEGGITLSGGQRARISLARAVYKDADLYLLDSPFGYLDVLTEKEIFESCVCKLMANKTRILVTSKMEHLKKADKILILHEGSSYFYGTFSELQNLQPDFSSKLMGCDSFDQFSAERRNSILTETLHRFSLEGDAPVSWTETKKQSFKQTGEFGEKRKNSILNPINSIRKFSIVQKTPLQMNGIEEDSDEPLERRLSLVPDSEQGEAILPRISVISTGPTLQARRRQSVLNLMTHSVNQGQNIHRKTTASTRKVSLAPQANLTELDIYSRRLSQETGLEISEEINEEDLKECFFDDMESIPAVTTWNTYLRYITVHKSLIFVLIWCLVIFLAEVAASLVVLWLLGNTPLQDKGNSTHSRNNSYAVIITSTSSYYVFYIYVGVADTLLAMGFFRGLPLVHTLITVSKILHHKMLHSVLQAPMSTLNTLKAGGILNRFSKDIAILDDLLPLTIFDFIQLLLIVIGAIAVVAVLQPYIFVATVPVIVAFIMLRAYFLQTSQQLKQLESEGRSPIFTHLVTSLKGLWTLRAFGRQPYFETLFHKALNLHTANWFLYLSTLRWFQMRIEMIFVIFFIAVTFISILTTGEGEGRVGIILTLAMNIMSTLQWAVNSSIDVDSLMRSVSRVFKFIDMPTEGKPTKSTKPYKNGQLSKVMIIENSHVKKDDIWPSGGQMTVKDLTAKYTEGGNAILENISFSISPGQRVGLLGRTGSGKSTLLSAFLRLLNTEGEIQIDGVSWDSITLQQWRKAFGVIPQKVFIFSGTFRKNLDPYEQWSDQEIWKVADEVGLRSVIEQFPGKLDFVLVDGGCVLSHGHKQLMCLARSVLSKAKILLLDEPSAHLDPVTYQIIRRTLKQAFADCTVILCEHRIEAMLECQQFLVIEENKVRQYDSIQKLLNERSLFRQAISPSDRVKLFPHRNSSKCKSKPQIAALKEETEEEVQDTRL", "assay": "Ussing chamber short-circuit current (ion transport via CFTR)", "format": "cell-based", "conditions": "for effect of Inh172 on cell potential: CFTR inh172 10 μM; for short circuit current differential after addition of tritoqualine: tritoqualine 10 μM", "from_the_text": "To investigate this action on CFTR modulation, the inventors used the Ussing chamber method, invented by the Dane Hans H. Ussing in the late 1950s. This technique makes it possible to study ionic exchanges across an epithelium, as it allows the tissue of interest to be kept alive for a few hours under controlled conditions of temperature and medium. The positioning of the tissue between two half-chambers makes it possible to define an apical compartment (corresponding to the lumen of the organ) and a basolateral compartment (corresponding to the blood compartment) and to investigate exchanges between these two compartments via the tissue.\nThis technique is used as a routine and is particularly well adapted for a pharmacological approach to ionic transport and to search for molecules of therapeutic interest in the context of ionic secretions of epithelial cells. It consists in measuring the transepithelial current (known as the short-circuit current and noted Ise). Ise is expressed in amperes to unit area of the epithelium (Ise in μA/cm^2). The cells are grown on a porous filter for 10 to 15 days at the liquid-liquid interface and then air-liquid interface in order to mimic conditions close to in vivo. The transepithelial resistance is measured regularly when culturing. The higher this resistance is (several hundred ohms), the more the epithelial tissue is junctive, polarised and therefore tight. At the air (apical side)-liquid (basolateral side) interface the epithelial cells polarise and form a tight mat which can be investigated with the Ussing chamber technique. A system with 6 Physiology Instrument® cuvettes allowing 6 experiments in parallel has been used.\nThe inventors have used USSING chambers to analyse the activity of tritoqualine on CFTR of glandular epithelial cells.\nTypical protocols used for human epithelial cells expressing non-mutated CFTR:\nMeasurement of short circuit current in the presence of amiloride (ENaC channel inhibitor, 100 μM) followed by addition of 10 μM of the tritoqualine molecule and then addition of CFTR inh172 (10 μM, CFTR inhibitor) followed by addition of UTP (100 μM, validates the experiment by activating the calcium-sensitive Cl transport).\nMeasurement of short circuit current in the presence of amiloride (100 μM) and forskolin (0.05 μM activator of intracellular cAMP) then addition of 10 μM of the tritoqualine molecule then addition of CFTRinh172 (10 μM) then addition of UTP (100 μM).\nMeasurement of the short circuit current in the presence of CFTR Inh172 (10 μM) then addition of tritoqualine and forskolin (0.05 μM) then addition of UTP.\nThe inventors have prepared a 100 μM stock solution in DMSO. The compounds have been aliquoted per 100 μL and stored at −20° C.\nTritoqualine has been added to USSING cells at a dose of 10 μM in non-mutated cells FIG. 5."}, "histidine decarboxylase": {"molecular_target": "T2, histidine decarboxylase (Homo sapiens, UniProt P19113)", "T2 sequence (P19113 1-662)": "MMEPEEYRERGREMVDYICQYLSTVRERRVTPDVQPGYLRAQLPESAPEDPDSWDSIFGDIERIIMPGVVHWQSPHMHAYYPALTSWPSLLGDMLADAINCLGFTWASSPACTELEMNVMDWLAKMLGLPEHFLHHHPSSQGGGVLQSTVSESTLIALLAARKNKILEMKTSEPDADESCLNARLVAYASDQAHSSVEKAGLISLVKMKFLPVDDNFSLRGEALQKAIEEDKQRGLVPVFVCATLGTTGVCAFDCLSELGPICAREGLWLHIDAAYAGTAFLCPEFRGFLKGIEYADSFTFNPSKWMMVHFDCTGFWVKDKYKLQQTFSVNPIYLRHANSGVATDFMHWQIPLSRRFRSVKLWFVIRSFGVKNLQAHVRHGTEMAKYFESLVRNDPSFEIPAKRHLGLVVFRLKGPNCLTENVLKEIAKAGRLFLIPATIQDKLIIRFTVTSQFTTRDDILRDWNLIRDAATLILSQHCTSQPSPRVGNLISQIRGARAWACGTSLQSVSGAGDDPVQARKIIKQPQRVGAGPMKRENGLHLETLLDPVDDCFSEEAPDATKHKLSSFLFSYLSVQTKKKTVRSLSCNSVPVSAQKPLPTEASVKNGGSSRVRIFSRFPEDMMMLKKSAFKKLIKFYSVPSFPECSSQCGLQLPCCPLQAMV", "conditions": "known anti-allergic activity; cited from earlier work"}, "NK 1 receptor": {"molecular_target": "T3, NK 1 receptor (Homo sapiens, UniProt P25103)", "T3 construct": "human NK1 tachykinin receptor in the astrocytoma cell line U 373 MG; endogenous in cells; host or cells: U 373 MG human astrocytoma cells (per the cited method)", "T3 sequence (P25103 whole entry)": "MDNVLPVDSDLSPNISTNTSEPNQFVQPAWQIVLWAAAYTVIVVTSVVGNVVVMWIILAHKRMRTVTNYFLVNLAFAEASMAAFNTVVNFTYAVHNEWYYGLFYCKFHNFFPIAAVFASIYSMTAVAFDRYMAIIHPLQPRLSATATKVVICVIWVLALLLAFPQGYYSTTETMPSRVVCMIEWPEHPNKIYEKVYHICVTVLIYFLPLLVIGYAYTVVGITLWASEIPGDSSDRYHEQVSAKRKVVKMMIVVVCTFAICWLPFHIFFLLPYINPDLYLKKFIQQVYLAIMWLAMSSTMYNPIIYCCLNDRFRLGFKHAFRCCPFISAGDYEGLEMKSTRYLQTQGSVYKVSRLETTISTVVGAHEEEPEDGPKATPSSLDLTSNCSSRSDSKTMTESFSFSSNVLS", "assay": "NK 1 receptor binding (method of Heuillet et al.)", "conditions": "FIG. 8", "description": "Tritoqualine has been tested on the NK 1 receptor according to the method described by Heuillet et al., Characterization of a human NK1 tachykinin receptor in the astrocytoma cell line U 373 MG. Heuillet E et al. Neurochem. 1993 March."}, "basophils": {"test_system": "basophils", "assay": "Flow CAST basophil degranulation (CD63+/CCR3+ flow cytometry)", "format": "cell-based, human", "from_the_text": "The inventors have used the Kit-Flow CAST (www.buhlmannlabs.ch/products-solutions/cellular-allergy/flow-cast/) to test the action of tritoqualine on the inhibition of basophil degranulation. The marker for degranulation is CD63. Upon basophil activation, CD63 markers bound to intracytoplasmic granules will fuse with the plasma membrane. They are then expressed on the cell surface: activated basophils thereby become CD63+. Further to CD63, another marker specific to basophils makes it possible to better target them, it is CCR3 (chemokine receptor 3). The latter is always expressed by this cell type. Thus, the degranulation of basophils is identified in the flow cytometry window as CD63+ and CCR3+.\nIn a first step 2 patients have been sampled. substance P has been tested at a dose of 10 μmoles.\nAfter 30 minutes, degranulation in each of the tubes is around 7% as with the negative control."}, "[1]": {"conditions": "cited from earlier work"}},
  "note": "pEC50: −log10 of the molar value. Where two headings read alike, the source gives them in different places. Where no end group is shown, it is not given here.",
  "data": [
    {"compound": "O=C(O)c1ccc(C=C2SC(=S)N(c3cccc(C(F)(F)F)c3)C2=O)cc1", "note": "[Inh172]", "values": [
      {"measurement": "effect of Inh172 on cell potential", "setting": "non-mutated CFTR; non-mutated epithelial cells, apical side", "result": "completely blocks"},
      {"measurement": "effect of Inh172 on cell potential", "setting": "non-mutated CFTR; non-mutated lacrimal gland epithelial cells (second experiment)", "result": "completely blocks"}
    ]},
    {"compound": "CCOc1c(N)c2c(c(OCC)c1OCC)C(C1c3c(cc4c(c3OC)OCO4)CCN1C)OC2=O", "note": "(stereo not drawn) [tritoqualine, AMINO-7 TRIETHOXY-4,5,6 OXO-1 DIHYDRO-1,3 ISOBENZOFURANNYL-3)-1METHOXY-8METHYL-2METHYLENEDIOXY-6,7TETRAHYDRO-,2,3,4ISOQUINOLINE]", "values": [
      {"measurement": "inhibitory action on histidine decarboxylase", "setting": "histidine decarboxylase", "result": "very weak"},
      {"measurement": "affinity (percent inhibition) on NK 1 receptor", "setting": "NK 1 receptor", "result": 97, "unit": "%"},
      {"measurement": "pEC50", "setting": "non-mutated CFTR; apical pole, FIG. 2, read-out: EC50 activity, apical pole", "result": 5.47},
      {"measurement": "pEC50", "setting": "non-mutated CFTR; basal pole, FIG. 3, read-out: EC50, basal pole", "result": 5.31},
      {"measurement": "short circuit current differential after addition of tritoqualine", "setting": "non-mutated CFTR; non-mutated epithelial cells, apical side, increases from 16", "result": "more than 20 μA/cm^2"},
      {"measurement": "short circuit current differential after addition of tritoqualine", "setting": "non-mutated CFTR; non-mutated lacrimal gland epithelial cells, printed 'apical side' (second experiment), increases from 6.5", "result": "more than 7.5 μA/cm^2"},
      {"measurement": "degranulation after substance P in presence of tritoqualine", "setting": "basophils; tritoqualine 10 pmoles (FIG. 10: 10 μM), then substance P, after 30 minutes, as with the negative control", "result": "around 7%"},
      {"measurement": "solubility in benzene and acetone", "setting": "[1]; benzene and acetone", "result": "sparingly soluble"},
      {"measurement": "solubility in water", "setting": "[1]; water", "result": "Insoluble"}
    ]},
    {"compound": "substance P: NK 1 agonist (supplier Sigma-Aldrich) (RPKPQQFFGLM-NH2; UniProt P20366 58-68, looked up)", "values": [
      {"measurement": "CD63 present on the basophil (degranulation)", "setting": "basophils; substance P at 10 μmoles, basophils of 2 patients", "result": 70, "unit": "%"}
    ]}
  ]
}
